Results from patent publication US9974806B2 (priority 2012, dated 2018).

Test system: Shiga toxins

colloidal bismuth hydroxide gel [CBHG]
cytotoxic activity on Vero cells: significant decrease
